In the NIST ThermoML archive (doi:10.1016/j.jct.2018.08.014):
± gives the expanded uncertainty stated by the source.

Key:
[1] = Crystal; DSC
[2] = molar heat capacity at constant pressure; settings: 101.33 kPa, Liquid, DSC

CCCCCCCC(=O)OCCCC [butyl octanoate]
Settings | Triple point temperature [K]
[1] | 230 ± 2

[2]
Settings | molar heat capacity at constant pressure [J/K/mol]
241 K | 387.43 ± 41
243 K | 387.43 ± 41
245 K | 386.6 ± 41
247 K | 386.6 ± 41
249 K | 386.6 ± 41
251 K | 386.6 ± 41
253 K | 386.6 ± 41
255 K | 387.43 ± 41
257 K | 388.26 ± 42
259 K | 387.43 ± 41
261 K | 387.43 ± 41
263 K | 386.6 ± 41
265 K | 386.6 ± 41
267 K | 386.6 ± 41
269 K | 386.6 ± 41
271 K | 386.6 ± 41
273 K | 386.6 ± 41
275 K | 386.6 ± 41
277 K | 386.6 ± 41
279 K | 388.26 ± 42
281 K | 389.1 ± 42
283 K | 390.76 ± 42
285 K | 391.59 ± 42
287 K | 391.59 ± 42
289 K | 393.25 ± 42
291 K | 394.08 ± 42
293 K | 394.92 ± 42
295 K | 395.75 ± 42
297 K | 396.58 ± 42
298 K | 397.41 ± 42
299 K | 397.41 ± 42
301 K | 398.24 ± 42
303 K | 399.07 ± 42

CCCCCCOC(=O)CCCCC [hexanoic acid, hexyl ester]
Settings | Triple point temperature [K]
[1] | 217 ± 2

[2]
Settings | molar heat capacity at constant pressure [J/K/mol]
227 K | 390.76 ± 42
229 K | 387.43 ± 41
231 K | 385.77 ± 41
233 K | 384.94 ± 41
235 K | 384.11 ± 41
237 K | 384.11 ± 41
239 K | 383.28 ± 41
241 K | 383.28 ± 41
243 K | 383.28 ± 41
245 K | 383.28 ± 41
247 K | 383.28 ± 41
249 K | 383.28 ± 41
251 K | 383.28 ± 41
253 K | 383.28 ± 41
255 K | 384.11 ± 41
257 K | 384.94 ± 41
259 K | 384.94 ± 41
261 K | 384.94 ± 41
263 K | 385.77 ± 41
265 K | 385.77 ± 41
267 K | 385.77 ± 41
269 K | 385.77 ± 41
271 K | 385.77 ± 41
273 K | 384.94 ± 41
275 K | 384.94 ± 41
277 K | 385.77 ± 41
279 K | 386.6 ± 41
281 K | 387.43 ± 41
283 K | 389.1 ± 42
285 K | 389.93 ± 42
287 K | 390.76 ± 42
289 K | 392.42 ± 42
291 K | 392.42 ± 42
293 K | 393.25 ± 42
295 K | 394.08 ± 42
297 K | 394.92 ± 42
298 K | 394.92 ± 42
299 K | 394.92 ± 42
301 K | 396.58 ± 42
303 K | 397.41 ± 42

CCCCCCCCCCC(=O)OC [methyl undecanoate]
Settings | Triple point temperature [K]
[1] | 262 ± 2

[2]
Settings | molar heat capacity at constant pressure [J/K/mol]
273 K | 381.61 ± 41
275 K | 381.61 ± 41
277 K | 384.11 ± 41
279 K | 380.78 ± 41
281 K | 381.61 ± 41
283 K | 382.44 ± 41
285 K | 382.44 ± 41
287 K | 385.77 ± 41
289 K | 384.11 ± 41
291 K | 384.11 ± 41
293 K | 384.94 ± 41
295 K | 384.94 ± 41
297 K | 385.77 ± 41
298 K | 389.1 ± 42
299 K | 385.77 ± 41
301 K | 386.6 ± 41
303 K | 389.93 ± 42

CCCCCCCCOC(=O)CCC [octyl butanoate]
Settings | Triple point temperature [K]
[1] | 218 ± 2

[2]
Settings | molar heat capacity at constant pressure [J/K/mol]
227 K | 380.78 ± 41
229 K | 379.12 ± 40
231 K | 379.12 ± 40
233 K | 378.29 ± 40
235 K | 376.62 ± 40
237 K | 376.62 ± 40
239 K | 375.79 ± 40
241 K | 374.96 ± 40
243 K | 374.13 ± 40
245 K | 373.3 ± 40
247 K | 373.3 ± 40
249 K | 372.47 ± 40
251 K | 372.47 ± 40
253 K | 372.47 ± 40
255 K | 372.47 ± 40
257 K | 373.3 ± 40
259 K | 372.47 ± 40
261 K | 373.3 ± 40
263 K | 373.3 ± 40
265 K | 373.3 ± 40
267 K | 374.13 ± 40
269 K | 374.13 ± 40
271 K | 374.13 ± 40
273 K | 373.3 ± 40
275 K | 373.3 ± 40
277 K | 373.3 ± 40
279 K | 374.13 ± 40
281 K | 375.79 ± 40
283 K | 376.62 ± 40
285 K | 377.46 ± 40
287 K | 378.29 ± 40
289 K | 379.12 ± 40
291 K | 379.95 ± 40
293 K | 380.78 ± 41
295 K | 381.61 ± 41
297 K | 383.28 ± 41
298 K | 383.28 ± 41
299 K | 384.11 ± 41
301 K | 385.77 ± 41
303 K | 385.77 ± 41

CCCCCCCCCC(=O)OCC [ethyl decanoate]
Settings | Triple point temperature [K]
[1] | 252 ± 2

[2]
Settings | molar heat capacity at constant pressure [J/K/mol]
263 K | 375.79 ± 40
265 K | 375.79 ± 40
267 K | 375.79 ± 40
269 K | 375.79 ± 40
271 K | 375.79 ± 40
273 K | 374.96 ± 40
275 K | 374.13 ± 40
277 K | 374.96 ± 40
279 K | 376.62 ± 40
281 K | 378.29 ± 40
283 K | 379.12 ± 40
285 K | 379.95 ± 40
287 K | 379.95 ± 40
289 K | 380.78 ± 41
291 K | 380.78 ± 41
293 K | 381.61 ± 41
295 K | 382.44 ± 41
297 K | 383.28 ± 41
298 K | 383.28 ± 41
299 K | 384.11 ± 41
301 K | 385.77 ± 41
303 K | 385.77 ± 41
